Measured values taken from patent publication US20230398092A1, “APPLICATION OF SESQUITERPENE LACTONE COMPOUND IN PREPARATION OF DRUGS FOR ALLEVIATING RADIOTHERAPY-INDUCED INJURIES” (ACCENDATECH CO., LTD., priority 2020, published 2023).
Where two headings read alike, the source gives them in different places.

Tests used:
[1] = test system: U118-MG human brain astroblastoma cell strain; test: Anti-proliferation activity of ACT001 at different radiation doses (CCK-8); type: cell-based; conditions: ACT001 20 μM; for inhibition at 20 µM: Homo sapiens, U-118-MG, U118-MG cells, read-out: Inhibition rate (%) at different radiation doses
Procedure: The culture medium for U118-MG was DMEM, and the cells were cultured in a cell incubator at 37° C. with 5% CO2.
(§1) Recover of U118-MG cells: a cryopreservation tube was taken from liquid nitrogen, placed in water bath at 37° C. to thaw the cryopreservation solution, and centrifuged at 1000 rpm for 5 min. The supernatant was discarded, and the cells were resuspended in a complete culture medium and cultured under the condition of 37° C., 5% CO2.
(§2) When 70-80% of the bottom of the culture flask was covered by the cells, the culture medium was discarded by pipetting. The cells were washed with 2-3 mL of PBS buffer and digested with 1-2 mL of 0.25% pancreatin (just enough to cover the bottom of the flask). Immediately after the cell became round after being cultured in the incubator for a period of time, a complete culture medium was added to stop the digestion, and the cell suspensions after the digestion were combined and centrifuged at 1000 rpm for 5 min. The supernatant was discarded, and the cells were resuspended in a complete culture medium, gently pipetted, and counted. The cell density was adjusted to 2500 cells/well, and the cells were seeded into a 96-well plate at 90 μL/well.
Dosing was performed one day after the cells were seeded. Each plate was divided into a blank group, a negative control group and 10 compound groups, with 4-6 duplicate wells set for each group. 10 μL of the compound was added to each well. 3 h later, each well received a corresponding radiation dose. The cells were cultured at 37° C. for 24 h. After that, the culture medium was discarded, a corresponding fresh culture medium was added, and the plate was incubated for 48 h. At the end of incubation, 10 μL of CCK-8 solution (taking care not to create air bubbles in the wells, which would affect the OD readings) was added to each well, and the plate was incubated in the incubator for 1-4 h. The OD value at 450 nm was determined with a microplate reader.
The data were processed with an EXCEL software to solve inhibition rates at different concentrations, and IC50 values were obtained by fitting with SPSS. The mean and standard deviation of the IC50 values obtained three times were solved by SPSS.
Inhibition rate %={1−(OD value of compound well−OD value of blank well)/(OD value of control well−OD value of blank well)}×100%

[2] = test system: BEAS2B human normal lung epithelial cell strain; test: Selective radiotherapy protection effect on normal cells (CCK-8), normal lung epithelial cells; type: cell-based; conditions: ACT001 10 μM, 0-6 Gy, radiation 1 h after dosing, 48 h, FIG. 5
Procedure: (§3) The culture medium for H226 and BEAS2B cells was DMEM, and the cells were cultured in a cell incubator at 37° C. with 5% CO2.
(§4) Recover of H226 and BEAS2B cells: a cryopreservation tube was taken from liquid nitrogen, placed in water bath at 37° C. to thaw the cryopreservation solution, and centrifuged at 1000 rpm for 5 min.
(§5) The supernatant was discarded, and the cells were resuspended in a complete culture medium and cultured under the condition of 37° C., 5% CO2.
as §2, with “culture dish” for “culture flask”, “was discarded.” for “was discarded by pipetting.”, “with 1” for “with 1-2”, “counted. […]” for “counted. The cell density was adjusted to 2500 cells/well, and the cells were seeded into a 96-well plate at 90 μL/well.”
(§6) Dosing was performed 24 h after the cells were seeded. […] 10 μL of CCK-8 solution (taking care not to create air bubbles in the wells, which would affect the OD readings) was added to each well, and the plate was incubated in the incubator for 1-4 h. The OD value at 450 nm was determined with a microplate reader.

[3] = test system: H226 human squamous lung carcinoma cell strain; test: Selective radiotherapy protection effect (CCK-8), lung cancer cells; type: cell-based; conditions: ACT001 10 μM, 0-6 Gy, radiation 1 h after dosing, 48 h, FIG. 5
Procedure: as §3, §4, §5
as §2, with “culture dish” for “culture flask”, “was discarded.” for “was discarded by pipetting.”, “with 1” for “with 1-2”, “counted. […]” for “counted. The cell density was adjusted to 2500 cells/well, and the cells were seeded into a 96-well plate at 90 μL/well.”
as §6

[4] = test system: SYSY human neuroblastoma cell strain; test: Alleviation of radiation-induced neuronal cell death (CCK-8); type: cell-based; conditions: ACT001 1.25-10 μM, 0-10 Gy, radiation 1 h after dosing, 48 h, FIG. 6
Procedure: The culture medium for SYSY cells was DMEM, and the cells were cultured in a cell incubator at 37° C. with 5% CO2.
as §1, with “SYSY” for “U118-MG”
as §2, with “culture dish” for “culture flask”, “was discarded.” for “was discarded by pipetting.”, “with 1” for “with 1-2”, “counted. […]” for “counted. The cell density was adjusted to 2500 cells/well, and the cells were seeded into a 96-well plate at 90 μL/well.”
as §6

BALB/c mice [5] = test: Effect of ACT001 on survival of mice subjected to radiotherapy; type: in vivo
From the text: (§7) Adult BALB/c mice, 18-19 g, 8 weeks, female, SPF (Beijing) Biotechnology Co., Ltd., animal certificate number: SCXK (Beijing) 2016-0002. The test animals were bred in the common environment of the experimental animal center of the Institute of Radiation Medicine, Chinese Academy of Medical Sciences, with 5 animals in each cage. The padding was autoclaved special padding for mice, and the mice were fed with special sterilized feed, and were free to drink purified water. In the animal laboratory, the temperature was kept at about 25° C., the relative humidity was kept at 40%-70%, and the illumination was provided for 12 h daily.
In a preliminary experiment of radiation dose exploration, mice were subjected to radiation at 8 Gy, 10 Gy, 12 Gy, and 14 Gy, respectively. All animals died 18 days after the radiation. However, the animals in the 8 Gy group survived longer than the other groups, so the radiation dose of 8 Gy was selected for the formal experiment.
3.1 Experimental Procedures • (1) The lethal dose of a single radiation of mice was determined through a preliminary experiment; (2) the mice were randomly grouped by the body weight; • (3) ACT001 was pre-administered for 17 consecutive days, and the state of the animals was observed and the body weight was measured daily; • (4) the mice in groups (3) and (4) were subjected to radiation at a lethal dose after 17 days of the administration, and on the day of radiation, ACT001 was administered 1 h before the radiation; • (5) ACT001 was continuously administered for five weeks after the radiation, and the survival state of the animals was observed and the body weight was measured daily. The survival rate and survival time of mice in each group were calculated.
3.2 Grouping Regimen • (1) Blank control group • (2) ACT001-200 mg/kg group • (3) Radiotherapy-8 Gy group • (4) ACT001-200 mg/kg+radiotherapy-8 Gy group
A total of 4 groups were set in the experiment, with 10 animals in each group.
3.3 Administration Method • ACT001 (dissolved in normal saline) was administered intragastrically once daily, with an interruption once a week; • an equal volume of normal saline was administered intragastrically to the blank control group.
Data were expressed as x±s; statistical analysis among groups was performed using the t-test program in EXCEL software, and the logrank chi-square test method was used to evaluate whether there was statistical significance in each group of dead animals.

BALB/c mice [6] = test: Effect of ACT001 on radiation-induced neuronal apoptosis of mice (Tunel staining of whole brain); type: in vivo; conditions: ACT001 200 mg/kg intragastrically + brain radiation 2 Gy × 4 or single 4 Gy, day 14, Tunel staining, FIG. 7
From the text: as §7, with “2.3 Experimental Animal and Feeding Conditions • Adult” for “Adult”, “2019-0010.” for “2016-0002.”, “barrier” for “common”, “daily. 3. Experimental procedures and compound treatment” for “daily.”
3.1 Administration Method • ACT001 (dissolved in sterile normal saline) was administered intragastrically once daily; an equal volume of sterile normal saline was administered to the model control group; • The compound for each group was prepared freshly prior to use.
3.2 Experimental Grouping • (1) Model control group • (2) Radiotherapy control group (4 Gy) • (3) ACT001-200 mg/kg group • (4) ACT001-200 mg/kg+4 Gy group • (5) Radiotherapy low-dose control group (2 Gy) • (6) ACT001-200 mg/kg+2 Gy group • 10 animals in each group, 60 animals in total.
The mice were randomly grouped, with 10 mice in each group. […]

Q: Which “Effect on the inhibition by radiation of the proliferation of U118-MG cells” value ([1]; FIG. 1) does the source give for CC1=C2CC[C@@](C)(O)[C@@H]2[C@H]2OC(=O)[C@@H](CN(C)C)[C@@H]2CC1.O=C(O)/C=C/C(=O)O [ACT001, (3R,3aS,9R,9aS,9bS)-3-((dimethylamino)methyl)-9-hydroxy-6,9-dimethyl-3,3a,4,5,7,8,9,9a-octahydroazuleno[4,5]furan-2(9bH)-one fumarate] here?
A: significantly enhance the inhibition effect of the radiation group

Q: And the inhibition at 20 µM ([1]; 0 Gy)?
A: 19.2%

Q: What about the inhibition at 20 µM ([1]; 6 Gy) of the same compound?
A: 22.8%

Q: And the inhibition at 20 µM ([1]; 10 Gy)?
A: 33.8%

Q: And the inhibition at 20 µM ([1]; 20 Gy)?
A: 36.1%

Q: What about the inhibition at 20 µM ([1]; 50 Gy) of the same compound?
A: 75.6%

Q: What about the “Effect on radiotherapy-induced injuries of BEAS2B cells” value [2] of the same compound?
A: significantly reduce radiotherapy-induced injuries of BEAS2B cells

Q: What about the “Protection effect on H226 tumor cells against radiation” value [3] of the same compound?
A: no protection effect on H226 tumor cells

Q: And the “Effect on injuries of SYSY cells caused by radiation” value [4]?
A: significantly reduce the injuries of SYSY cells caused by radiation

Q: What about the “Day on which animal death occurred” value (BALB/c mice [5]; ACT001 200 mg/kg + radiotherapy 8 Gy group) of the same compound?
A: 15 days

Q: And the “Survival time compared with the radiotherapy control-8 Gy group” value (BALB/c mice [5]; ACT001 200 mg/kg + radiotherapy 8 Gy, P<0.01)?
A: significantly prolonged

Q: What about the “State and body weight of animals during pre-administration” value (BALB/c mice [5]; ACT001 200 mg/kg intragastrically, 17 consecutive days before radiotherapy) of the same compound?
A: in good state with stable body weight

Q: What about the “Survival rate (%)” value (BALB/c mice [5]; ACT001 200 mg/kg p.o. × 49 + systemic radiotherapy 8 Gy × 1, BALB/c mice) of the same compound?
A: 70%

Q: What about the “Body weight (g) End” value (BALB/c mice [5]; ACT001 200 mg/kg p.o. × 49 + systemic radiotherapy 8 Gy × 1, x ± s) of the same compound?
A: 18.5 ± 2.9 g

Q: What about the “Survival rate (%)” value (BALB/c mice [5]; ACT001 200 mg/kg p.o. × 49, no radiotherapy, BALB/c mice) of the same compound?
A: 100%

Q: What about the “Body weight (g) End” value (BALB/c mice [5]; ACT001 200 mg/kg p.o. × 49, no radiotherapy, x ± s) of the same compound?
A: 19.1 ± 3.0 g

Q: And the “Apoptosis of neurons in the cerebral cortex compared with radiation-only groups” value (BALB/c mice [6])?
A: significantly reduce the apoptosis of neurons
